Measurements as given in PubChem BioAssay (NCI).
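The compound was tested at five concentrations on cells cultured in 96-well plates, with a 48-hour exposure period. GI50 is the concentration that inhibits growth by half. Definition used: TGI = concentration required for complete inhibition of growth.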 Where a SMILES comes first, the peptide text is derived from it. [ ]: non-standard residue; d: D form. The star is where a group is joined. ξ: configuration not given here. ξD = NC(CC(=O)O)C(=O)O; Ac3c = NC1(C(=O)O)CC1; Boc = CC(C)(C)OC(=O)*; OBn = c1ccc(CO*)cc1

Legend:
Assay in all cases: NCI-60 cell line screen, 48 h
MOLT-4 leukemia = test system: MOLT-4 leukemia
HCT-15 colon = test system: HCT-15 colon
NCI-H23 lung = test system: NCI-H23 lung
SNB-75 CNS = test system: SNB-75 CNS
T-47D breast = test system: T-47D breast
SK-MEL-28 melanoma = test system: SK-MEL-28 melanoma
TK-10 renal = test system: TK-10 renal
OVCAR-3 ovarian = test system: OVCAR-3 ovarian
HL-60(TB) leukemia = test system: HL-60(TB) leukemia

Structure (SMILES) | TGI (MOLT-4 leukemia) [µM] | TGI (HCT-15 colon) [µM] | TGI (NCI-H23 lung) [µM] | TGI (SNB-75 CNS) [µM] | TGI (T-47D breast) [µM] | TGI (SK-MEL-28 melanoma) [µM] | TGI (TK-10 renal) [µM] | TGI (OVCAR-3 ovarian) [µM] | TGI (HL-60(TB) leukemia) [µM] | GI50 (HL-60(TB) leukemia) [µM] | GI50 (TK-10 renal) [µM]
O=C(/C=C/c1ccc(-c2ccccc2)cc1)NCc1ccc(C(=O)NCCc2c[nH]c3ccccc23)cc1 | 38.8 | > 100 | > 100 | 42.8 | > 100 | > 100 | 86.8 | 92.6 |  |  | 
CC1(C)[C@@H](Cn2cnc3c(=O)[nH]c(N)nc32)CC[C@@]1(C)CO | > 100 | > 100 |  | > 100 | > 100 | > 100 | > 100 | > 100 |  |  | 
O=C1CCCC2=C1C(c1ccc3c(c1)OCO3)Nc1ccc3ccccc3c12 (stereo not drawn) |  | > 100 | > 100 | > 100 |  | > 100 | > 100 | > 100 |  |  | 
CCCC(CC)c1c(O)c(O)c(C(CC)CCC)c(C(CC)CCC)c1C(CC)CCC (stereo not drawn) |  | > 10 | > 10 |  | > 10 | > 10 | > 10 | > 10 | > 10 |  | 
O=c1[nH]c2ccccc2nc1/C=C(\O)C(F)F | > 100 | > 100 | > 100 |  |  | > 100 | > 100 | > 100 | > 100 |  | 
Cc1cc(N=Cc2c(CO)cnc(C)c2O)c(N=Cc2c(CO)cnc(C)c2O)cc1C.[Zn] | > 100 | > 100 |  | > 100 | > 100 | > 100 | > 100 | > 100 | > 100 | > 100 | 
CC(C)[C@H]1NC(=O)[C@H]2N=C(O[C@@H]2C)[C@@H]2CCCN2C(=O)[C@H](Cc2ccccc2)NC(=O)[C@@H]2CSC(=N2)[C@@H](Cc2ccccc2)NC(=O)[C@@H]2CSC1=N2 | > 100 | > 100 | > 100 |  | > 100 | > 100 | > 100 | > 100 | > 100 |  | 
COc1ccc(-c2nc(-c3cc4ccccc4oc3=O)cs2)cc1 | > 100 | > 100 |  | > 100 | > 100 | > 100 | > 100 |  | > 100 |  | 
CC(=O)NC1C(OCc2ccccc2)OC(CO)C(O)C1OCC(=O)NC(C)C(=O)NC(CCC(=O)NCCCCCNc1c2ccccc2nc2cccc([N+](=O)[O-])c12)C(N)=O (stereo not drawn) |  | < 0.0001 |  | 0.00164 |  | < 0.0001 | 1.54 |  | 0.0455 |  | < 0.0001
C=C(CC(=O)Nc1ccc(C(=O)OC)o1)C(=O)OC | 47.8 | 59.1 | 72.7 | > 100 | 54.8 | 44.6 | 46.1 |  |  |  | 
COC(=O)c1ccccc1C#CCCCOS(C)(=O)=O | > 10 | > 10 | > 10 |  | > 10 | > 10 | > 10 | > 10 | > 10 |  | 
Cc1ccc(S(=O)(=O)NC(=O)NCCC(=O)O)cc1 | > 100 | > 100 | > 100 | > 100 | > 100 | > 100 | > 100 |  | > 100 |  | 
Cn1c(-c2ccc[se]2)ccc1-c1ccc(CO)[se]1 | 98.2 | > 63.8 | > 84.3 | > 79.9 |  | > 100 |  |  | > 100 |  | 
CC(C)(C)OC(=O)NC(Cc1ccc(O)cn1)C(N)=O (stereo not drawn) | > 100 | > 100 | > 100 | > 100 |  | > 100 | > 100 | > 100 | > 100 |  | 
NS(=O)(=O)c1ccc(Nc2c3ccccc3nc3c(C(=O)NCCCN(CCO)CCO)cccc23)cc1 | 99 | > 100 | 53.8 |  | 44.2 | 41.9 | > 100 | 62.5 |  |  | 
CC(C)(C)n1c(=O)n(C(=O)C(Cl)(Cl)Cl)n(C(=O)C(Cl)(Cl)Cl)c1=O | > 100 | > 100 | > 100 |  | > 100 | > 100 | > 100 | > 100 | > 100 |  | 
COc1ccccc1NC(=S)N/N=C(/C)c1ccccn1 | > 100 | > 100 | > 100 | 49.2 |  | > 100 | 58.9 |  | 2.08 |  | 
CCOC(=O)CCc1c(C(=O)OCC)[nH]c(/C=C2\NC(=O)C(C)=C2CC)c1C | > 100 | > 100 |  | 27.8 | 26 | > 100 |  | 49.6 | > 100 |  | 
COC(=O)C1(NC(=O)C(CC(=O)OCc2ccccc2)NC(=O)OC(C)(C)C)CC1 (stereo not drawn) (Boc-[ξD](OBn)-[Ac3c]-OMe) | > 100 | > 100 | > 100 | > 100 | > 100 | > 100 | > 100 | > 100 |  |  | 
COc1ccc(/C=C(\C(=C/c2ccc(OC)cc2)[N+](=O)[O-])[N+](=O)[O-])cc1 | > 70.4 | 6.18 | 16 | 68.6 | 35.7 | 6.76 | 12.2 | 71.4 |  |  | 
CN(C)CCOC(=O)c1ccc(N)cc1 | 61.5 | > 100 | > 100 |  | > 100 | 67.5 | > 100 | > 100 | 83.7 |  | 
C[C@H](CC[C@@H](O)C(C)(C)O)[C@H]1CC[C@@]2(C)[C@@H]3CC=C4[C@@H](CC[C@H](O)C4(C)C)[C@]3(C)C(=O)C[C@]12C | > 50 | > 50 | > 50 |  |  | > 50 | > 50 | > 50 | > 50 |  | 
Cc1ccc(NC(=S)Nc2c(C)n(C)n(-c3ccccc3)c2=O)cc1 | > 100 | > 100 | > 100 | > 100 |  | > 100 | > 100 | > 100 | > 100 |  | 
N#CC(C#N)=Cc1c(O)ccc2ccccc12 |  | 37.5 | 26.9 | 17.9 | 46.4 | 28.9 | 32.2 | 27.4 | 15.7 |  | 
CCc1nn(S(=O)(=O)c2ccc(C)cc2)c2c1CS(=O)(=O)CC2 | > 100 | > 100 | > 100 | > 100 | > 100 | > 100 | > 100 | > 100 |  |  | 
CO/C(=N\N=C\c1ccc(Cl)cc1Cl)c1ccncc1 | > 10 | > 10 | > 10 |  | > 10 |  | > 10 | > 10 | > 10 |  | 
